Laboratory results as given in patent US12194039B2, “Methods of treating heart failure by administering omecamtiv mecarbil” (Cytokinetics, Inc., priority 2020, dated 2025).
Where two headings read alike, the source gives them in different places.

System: patients with HFrEF by ejection fraction quartile
Type: in vivo, human
Set-up: Change from baseline in KCCQ Total Symptom Score, least square mean / KCCQ Total Symptom Score Inpatient, Treatment Difference, least squares mean / KCCQ Total Symptom Score Outpatient, Treatment Difference, least squares mean / KCCQ Total Symptom Score, Treatment Difference, least squares mean: scale not given here
Details: for Adjudicated First Major Cardiac Ischemic Events, % / Adjudicated First Stroke, % / Adverse Event: Ventricular Tachyarrhythmia, % / All-cause Death (%) / All-cause Death Rate / All-cause Death n/N / Any treatment Emergent Serious Adverse Events, % / Positively Adjudicated Myocardial Infarction, % / Serious Adverse Event: Ventricular Arrhythmia Requiring Treatment, % / 1st HF Hospitalization (%) / 1st HF Hospitalization Rate / 1st HF Hospitalization n/N / First HF Event (%) / First HF Event Rate / First HF Event n/N / Primary Outcome (%) / Primary Outcome Rate / Primary Outcome n/N / Total HF Events, Events / Total HF Events, Rate / Total HF Hospitalizations, Events / Total HF Hospitalizations, Rate: OM group; for Adjudicated First Major Cardiac Ischemic Events, Relative Risk / Adjudicated First Stroke, Relative Risk / Adverse Event: Ventricular Tachyarrhythmia, Relative Risk / All-cause Death ARR / All-cause Death HR (95% CI) / Any treatment Emergent Serious Adverse Events, Relative Risk / Positively Adjudicated Myocardial Infarction, Relative Risk / Serious Adverse Event: Ventricular Arrhythmia Requiring Treatment, Relative Risk / 1st HF Hospitalization ARR / 1st HF Hospitalization HR (95% CI) / First HF Event ARR / First HF Event HR (95% CI) / Primary Outcome ARR / Primary Outcome HR (95% CI) / Total HF Events, ARR / Total HF Events, Ratio (95% CI) / Total HF Hospitalizations, ARR / Total HF Hospitalizations, Ratio (95% CI): OM vs placebo
Procedure: Continuous variables were summarized via means and standard deviations or medians and interquartile ranges, as appropriate. Categorical variables are summarized with counts and percentages. Tests of trend across categories were conducted via linear regression, Cuzick's non-parametric trend test, and Chi-squared tests of trend, respectively. Treatment effects on continuous outcomes were assessed via linear regression models adjusted for the corresponding baseline value of the parameter of interest. Survival analyses were conducted using Poisson regression models to estimate incidence rates, rate differences, and rate ratios and Cox proportional hazards models to estimate hazard ratios. […] To allow for potentially non-linear associations between ejection fraction and time-to-event outcomes, restricted cubic splines were utilized in the Poisson regression models with 3 knots. All analyses were conducted using STATA 16 (College Station, Tex.). P-values <0.05 were considered statistically significant. Due to the exploratory nature of these analyses, no adjustments were made for multiple comparisons.
Within each randomization setting subgroup least squares mean is from the mixed model which includes baseline total symptom score value, region, baseline eGFR, scheduled visit, treatment group and interaction of treatment with scheduled visit as covariates. Influence of Ejection Fraction on the Treatment Effect of Omecamtiv Mecarbil

[1] = EF 23-28%, baseline to Week 24, vs placebo
[2] = EF 29-32%, baseline to Week 24, vs placebo

Compound: COC(=O)N1CCN(Cc2cccc(NC(=O)Nc3ccc(C)nc3)c2F)CC1 [omecamtiv mecarbil]
- Adjudicated First Major Cardiac Ischemic Events, % (EF22%): 4.8%
- Adjudicated First Stroke, % (EF22%): 1.5%
- Adverse Event: Ventricular Tachyarrhythmia, % (EF22%): 9.8%
- All-cause Death (%) (EF22%): (29%)
- All-cause Death Rate (EF22%): 17.0 per 100 patient years
- All-cause Death n/N (EF22%): 329/1127
- Any treatment Emergent Serious Adverse Events, % (EF22%): (60.7%)
- Positively Adjudicated Myocardial Infarction, % (EF22%): 3.3%
- Serious Adverse Event: Ventricular Arrhythmia Requiring Treatment, % (EF22%): 3.6%
- Adjudicated First Major Cardiac Ischemic Events, Relative Risk (EF22%): RR: 1.19
- Adjudicated First Stroke, Relative Risk (EF22%): RR: 0.65
- Adverse Event: Ventricular Tachyarrhythmia, Relative Risk (EF22%): RR: 1.00
- All-cause Death ARR (EF22%): 0.8 per 100 patient years
- All-cause Death HR (95% CI) (EF22%): 0.98 (0.84, 1.14)
- Any treatment Emergent Serious Adverse Events, Relative Risk (EF22%): RR: 0.94
- Positively Adjudicated Myocardial Infarction, Relative Risk (EF22%): RR: 1.22
- Serious Adverse Event: Ventricular Arrhythmia Requiring Treatment, Relative Risk (EF22%): RR: 0.88
- 1st HF Hospitalization (%) (EF 23-28%): (27%)
- 1st HF Hospitalization Rate (EF 23-28%): 17.8 per 100 patient years
- 1st HF Hospitalization n/N (EF 23-28%): 295/1086
- Adjudicated First Major Cardiac Ischemic Events, % (EF 23-28%): 4.3%
- Adjudicated First Stroke, % (EF 23-28%): 1.8%
- Adverse Event: Ventricular Tachyarrhythmia, % (EF 23-28%): 8.3%
- All-cause Death (%) (EF 23-28%): (26%)
- All-cause Death Rate (EF 23-28%): 14.4 per 100 patient years
- All-cause Death n/N (EF 23-28%): 278/1086
- Any treatment Emergent Serious Adverse Events, % (EF 23-28%): (56.9%)
- First HF Event (%) (EF 23-28%): (28%)
- First HF Event Rate (EF 23-28%): 18.5 per 100 patient years
- First HF Event n/N (EF 23-28%): 304/1086
- Positively Adjudicated Myocardial Infarction, % (EF 23-28%): 2.7%
- Primary Outcome (%) (EF 23-28%): (36%)
- Primary Outcome Rate (EF 23-28%): 24.0 per 100 patient years
- Primary Outcome n/N (EF 23-28%): 393/1086
- Serious Adverse Event: Ventricular Arrhythmia Requiring Treatment, % (EF 23-28%): 3.2%
- Total HF Events, Events (EF 23-28%): 577
- Total HF Events, Rate (EF 23-28%): 30.0 per 100 pt-yrs
- Total HF Hospitalizations, Events (EF 23-28%): 541
- Total HF Hospitalizations, Rate (EF 23-28%): 28.1 per 100 pt-yrs
- 1st HF Hospitalization ARR (EF 23-28%): 1.8 per 100 patient years
- 1st HF Hospitalization HR (95% CI) (EF 23-28%): 0.86 (0.74, 1.01)
- Adjudicated First Major Cardiac Ischemic Events, Relative Risk (EF 23-28%): 1.00
- Adjudicated First Stroke, Relative Risk (EF 23-28%): 0.53
- Adverse Event: Ventricular Tachyarrhythmia, Relative Risk (EF 23-28%): 0.98
- All-cause Death ARR (EF 23-28%): 1.4 per 100 patient years
- All-cause Death HR (95% CI) (EF 23-28%): 0.89 (0.76, 1.05)
- Any treatment Emergent Serious Adverse Events, Relative Risk (EF 23-28%): 0.96
- First HF Event ARR (EF 23-28%): 2.4 per 100 patient years
- First HF Event HR (95% CI) (EF 23-28%): 0.84 (0.72, 0.98)
- Positively Adjudicated Myocardial Infarction, Relative Risk (EF 23-28%): 0.89
- Primary Outcome ARR (EF 23-28%): 3.3 per 100 patient years
- Primary Outcome HR (95% CI) (EF 23-28%): 0.85 (0.74, 0.97)
- Serious Adverse Event: Ventricular Arrhythmia Requiring Treatment, Relative Risk (EF 23-28%): 1.04
- Total HF Events, ARR (EF 23-28%): 4.0 per 100 pt-yrs
- Total HF Events, Ratio (95% CI) (EF 23-28%): 0.83 (0.68, 1.01)
- Total HF Hospitalizations, ARR (EF 23-28%): 3.2 per 100 pt-yrs
- Total HF Hospitalizations, Ratio (95% CI) (EF 23-28%): 0.84 (0.69, 1.02)
- Creatinine, Treatment Difference [1]: 0.01 mg/dL
- Heart rate, Treatment Difference [1]: −1.7 bpm
- KCCQ Total Symptom Score, Treatment Difference, least squares mean [1]: −0.6
- NT-proBNP (Ratio) [1]: 0.90
- Potassium, Treatment Difference [1]: -0.01 mmol/L
- Systolic BP, Treatment Difference [1]: −0.6 mmHg
- Troponin I (Ratio) [1]: 1.29
- Troponin I, Treatment Difference (95% CI) [1]: 4 (3, 5) ng/L
- 1st HF Hospitalization (%) (EF 29-32%): (27%)
- 1st HF Hospitalization Rate (EF 29-32%): 17.6 per 100 patient years
- 1st HF Hospitalization n/N (EF 29-32%): 279/1015
- Adjudicated First Major Cardiac Ischemic Events, % (EF 29-32%): 4.1%
- Adjudicated First Stroke, % (EF 29-32%): 2.4%
- Adverse Event: Ventricular Tachyarrhythmia, % (EF 29-32%): 6.9%
- All-cause Death (%) (EF 29-32%): (26%)
- All-cause Death Rate (EF 29-32%): 13.9 per 100 patient years
- All-cause Death n/N (EF 29-32%): 260/1015
- Any treatment Emergent Serious Adverse Events, % (EF 29-32%): (57.3%)
- First HF Event (%) (EF 29-32%): (28%)
- First HF Event Rate (EF 29-32%): 18.2 per 100 patient years
- First HF Event n/N (EF 29-32%): 286/1015
- Positively Adjudicated Myocardial Infarction, % (EF 29-32%): 2.2%
- Primary Outcome (%) (EF 29-32%): (37%)
- Primary Outcome Rate (EF 29-32%): 23.8 per 100 patient years
- Primary Outcome n/N (EF 29-32%): 375/1015
- Serious Adverse Event: Ventricular Arrhythmia Requiring Treatment, % (EF 29-32%): 2.1%
- Total HF Events, Events (EF 29-32%): 506
- Total HF Events, Rate (EF 29-32%): 27.1 per 100 pt-yrs
- Total HF Hospitalizations, Events (EF 29-32%): 472
- Total HF Hospitalizations, Rate (EF 29-32%): 25.3 per 100 pt-yrs
- 1st HF Hospitalization ARR (EF 29-32%): −2.1 per 100 patient years
- 1st HF Hospitalization HR (95% CI) (EF 29-32%): 1.19 (1.01, 1.42)
- Adjudicated First Major Cardiac Ischemic Events, Relative Risk (EF 29-32%): 1.08
- Adjudicated First Stroke, Relative Risk (EF 29-32%): 0.83
- Adverse Event: Ventricular Tachyarrhythmia, Relative Risk (EF 29-32%): 0.96
- All-cause Death ARR (EF 29-32%): −2.0 per 100 patient years
- All-cause Death HR (95% CI) (EF 29-32%): 1.19 (0.99, 1.42)
- Any treatment Emergent Serious Adverse Events, Relative Risk (EF 29-32%): 0.99
- First HF Event ARR (EF 29-32%): −1.3 per 100 patient years
- First HF Event HR (95% CI) (EF 29-32%): 1.13 (0.96, 1.33)
- Positively Adjudicated Myocardial Infarction, Relative Risk (EF 29-32%): 1.00
- Primary Outcome ARR (EF 29-32%): −1.4 per 100 patient years
- Primary Outcome HR (95% CI) (EF 29-32%): 1.11 (0.96, 1.28)
- Serious Adverse Event: Ventricular Arrhythmia Requiring Treatment, Relative Risk (EF 29-32%): 0.78
- Total HF Events, ARR (EF 29-32%): 0.6 per 100 pt-yrs
- Total HF Events, Ratio (95% CI) (EF 29-32%): 1.14 (0.93, 1.40)
- Total HF Hospitalizations, ARR (EF 29-32%): −0.1 per 100 pt-yrs
- Total HF Hospitalizations, Ratio (95% CI) (EF 29-32%): 1.18 (0.96, 1.46)
- Creatinine, Treatment Difference [2]: 0.01 mg/dL
- Heart rate, Treatment Difference [2]: −1.9 bpm
- KCCQ Total Symptom Score, Treatment Difference, least squares mean [2]: +0.3
- NT-proBNP (Ratio) [2]: 0.95
- Potassium, Treatment Difference [2]: -0.01 mmol/L
- Systolic BP, Treatment Difference [2]: −0.6 mmHg
